Experiments:
Type in all cases: in vivo
[1] = test system: Kochia (Kochia scoparia); test: Test A postemergence; conditions: Bassia scoparia, post-emergence, 240 h, read-out: Plant response rating, Kochia; for pest or weed control at 125 g/ha: 125 g ai/ha, postemergence, visual injury after approximately 10 d, 0 to 100 scale (0 no effect, 100 complete control)
Procedure, shortened: (§1)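 Compounds were formulated in a non-phytotoxic solvent mixture with surfactant and applied as a preemergence directed soil spray after seeding, or sprayed postemergence over plants 2 to 10 cm tall at the one- to two-leaf stage. Evaluation after about 10 d compared treated with untreated controls, using a scale from 0 (no effect) to 100 (complete control).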

[2] = test system: wheat (Triticum aestivum); test: Test A postemergence; conditions: Triticum aestivum, post-emergence, 240 h, read-out: Plant response rating, Wheat
Procedure, shortened: as §1

[3] = test system: ryegrass, Italian (Italian ryegrass, Lolium multiflorum); test: Test A postemergence; conditions: Lolium multiflorum, post-emergence, 240 h, read-out: Plant response rating, Ryegrass, Italian; for pest or weed control at 125 g/ha: 125 g ai/ha, postemergence, visual injury after approximately 10 d, 0 to 100 scale (0 no effect, 100 complete control)
Procedure, shortened: as §1

[4] = test system: giant foxtail (Setaria faberii); test: Test A postemergence; conditions: Setaria faberi, post-emergence, 240 h, read-out: Plant response rating, Foxtail, Giant; for pest or weed control at 125 g/ha: 125 g ai/ha, postemergence, visual injury after approximately 10 d, 0 to 100 scale (0 no effect, 100 complete control)
Procedure, shortened: as §1

[5] = test system: pigweed (Amaranthus retroflexus); test: Test A postemergence; conditions: Amaranthus retroflexus, post-emergence, 240 h, read-out: Plant response rating, Pigweed; for pest or weed control at 125 g/ha: 125 g ai/ha, postemergence, visual injury after approximately 10 d, 0 to 100 scale (0 no effect, 100 complete control)
Procedure, shortened: as §1

[6] = test system: barnyardgrass (Echinochloa crus-galli); test: Test A postemergence; conditions: Echinochloa crus-galli, post-emergence, 240 h, read-out: Plant response rating, Barnyardgrass; for pest or weed control at 125 g/ha: 125 g ai/ha, postemergence, visual injury after approximately 10 d, 0 to 100 scale (0 no effect, 100 complete control)
Procedure, shortened: as §1

[7] = test system: ragweed (common ragweed, Ambrosia elatior); test: Test A postemergence; conditions: Ambrosia artemisiifolia, post-emergence, 240 h, read-out: Plant response rating, Ragweed; for pest or weed control at 125 g/ha: 125 g ai/ha, postemergence, visual injury after approximately 10 d, 0 to 100 scale (0 no effect, 100 complete control)
Procedure, shortened: as §1

[8] = test system: corn (Zea mays); test: Test A postemergence; conditions: Zea mays, post-emergence, 240 h; for Corn plant response rating (crop injury, 0 = no effect, 100 = complete kill) at 125 g/ha: 125 g ai/ha, postemergence, visual injury after approximately 10 d, 0 to 100 scale (0 no effect, 100 complete control)
Procedure, shortened: as §1

[9] = test system: Galium (catchweed bedstraw, Galium aparine); test: Test A postemergence; conditions: Galium, post-emergence, 240 h, read-out: Plant response rating, Galium; for pest or weed control at 125 g/ha: 125 g ai/ha, postemergence, visual injury after approximately 10 d, 0 to 100 scale (0 no effect, 100 complete control)
Procedure, shortened: as §1

[10] = test system: blackgrass (Alopecurus myosuroides); test: Test A postemergence; conditions: Alopecurus myosuroides, post-emergence, 240 h, read-out: Plant response rating, Blackgrass; for pest or weed control at 125 g/ha: 125 g ai/ha, postemergence, visual injury after approximately 10 d, 0 to 100 scale (0 no effect, 100 complete control)
Procedure, shortened: as §1

[11] = test system: Kochia (Kochia scoparia); test: Test A preemergence; conditions: Bassia scoparia, pre-emergence, 240 h, read-out: Plant response rating, Kochia; for pest or weed control at 125 g/ha: 125 g ai/ha, visual rating after approx. 10 d, 0 to 100 scale where 0 is no effect and 100 is complete control
Procedure, shortened: as §1

[12] = test system: ryegrass, Italian (Italian ryegrass, Lolium multiflorum); test: Test A preemergence; conditions: Lolium multiflorum, pre-emergence, 240 h, read-out: Plant response rating, Ryegrass, Italian; for pest or weed control at 125 g/ha: 125 g ai/ha, visual rating after approx. 10 d, 0 to 100 scale where 0 is no effect and 100 is complete control
Procedure, shortened: as §1

[13] = test system: giant foxtail (Setaria faberii); test: Test A preemergence; conditions: Setaria faberi, pre-emergence, 240 h, read-out: Plant response rating, Foxtail, Giant; for pest or weed control at 125 g/ha: 125 g ai/ha, visual rating after approx. 10 d, 0 to 100 scale where 0 is no effect and 100 is complete control
Procedure, shortened: as §1

[14] = test system: pigweed (Amaranthus retroflexus); test: Test A preemergence; conditions: Amaranthus retroflexus, pre-emergence, 240 h, read-out: Plant response rating, Pigweed; for pest or weed control at 125 g/ha: 125 g ai/ha, visual rating after approx. 10 d, 0 to 100 scale where 0 is no effect and 100 is complete control
[15] = test system: barnyardgrass (Echinochloa crus-galli); test: Test A preemergence; conditions: Echinochloa crus-galli, pre-emergence, 240 h, read-out: Plant response rating, Barnyardgrass; for pest or weed control at 125 g/ha: 125 g ai/ha, visual rating after approx. 10 d, 0 to 100 scale where 0 is no effect and 100 is complete control
Procedure, shortened: as §1

[16] = test system: ragweed (common ragweed, Ambrosia elatior); test: Test A preemergence; conditions: Ambrosia artemisiifolia, pre-emergence, 240 h, read-out: Plant response rating, Ragweed; for pest or weed control at 125 g/ha: 125 g ai/ha, visual rating after approx. 10 d, 0 to 100 scale where 0 is no effect and 100 is complete control
Procedure, shortened: as §1

[17] = Postemergence, 31 g ai/ha, visual injury after approx. 10 d, 0 to 100 scale, 0 no effect, 100 complete control
[18] = Preemergence, 31 g ai/ha, 0 to 100 scale (0 no effect, 100 complete control)
[19] = 500 g ai/ha, preemergence, 0 to 100 scale, 0 = no effect, 100 = complete control

SMILES | pest or weed control at 125 g/ha [1] [%] | pest or weed control at 125 g/ha [3] [%] | pest or weed control at 125 g/ha [4] [%] | pest or weed control at 125 g/ha [5] [%] | pest or weed control at 125 g/ha [6] [%] | pest or weed control at 125 g/ha [7] [%] | Corn plant response rating (crop injury, 0 = no effect, 100 = complete kill) at 125 g/ha [8] [%] | pest or weed control at 125 g/ha [9] [%] | pest or weed control at 125 g/ha [10] [%] | pest or weed control at 125 g/ha ([11]; preemergence) [%] | pest or weed control at 125 g/ha ([12]; preemergence) [%] | pest or weed control at 125 g/ha ([13]; preemergence) [%] | pest or weed control at 125 g/ha ([14]; preemergence) [%] | pest or weed control at 125 g/ha ([15]; preemergence) [%] | pest or weed control at 125 g/ha ([16]; preemergence) [%] | other results
O=C1NCC[C@H](c2ccc(Cl)cc2)[C@H]1C(=O)Nc1cccc(F)c1F [Compound 795] | 0 | 0 | 50 | 0 | 70 | 0 | 0 | 0 | 0 | 0 | 0 | 70 | 0 | 80 | 0 | pest or weed control at 31 g/ha [1, 17]: 0%; plant injury at 31 g/ha [2, 17]: 0%; pest or weed control at 31 g/ha [3, 17]: 0%; pest or weed control at 31 g/ha [4, 17]: 0%; pest or weed control at 31 g/ha [5, 17]: 0%; pest or weed control at 31 g/ha [6, 17]: 20%; pest or weed control at 31 g/ha [7, 17]: 0%; Corn plant response rating (crop injury, 0 = no effect, 100 = complete kill) at 31 g/ha [8, 17]: 0%; pest or weed control at 31 g/ha [9, 17]: 0%; pest or weed control at 31 g/ha [10, 17]: 0%; pest or weed control at 31 g/ha [11, 18]: 0%; pest or weed control at 31 g/ha [12, 18]: 0%; pest or weed control at 31 g/ha [13, 18]: 0%; pest or weed control at 31 g/ha [14, 18]: 0%; pest or weed control at 31 g/ha [15, 18]: 30%; pest or weed control at 31 g/ha [16, 18]: 0%
CN1C[C@H](c2ccc(C(F)(F)F)cc2)[C@@H](C(=O)Nc2ccccc2C2CC2)C1=O [Compound 747] | 20 | 0 | 70 | 30 | 40 | 0 | 0 | 60 | 30 | 60 | 0 | 90 | 50 | 0 | 20 | plant injury at 125 g/ha ([2]; 125 g ai/ha, postemergence, visual injury after approximately 10 d, 0 to 100 scale (0 no effect, 100 complete control)): 0%; pest or weed control at 500 g/ha [11, 19]: 80%; pest or weed control at 500 g/ha [12, 19]: 60%; pest or weed control at 500 g/ha [13, 19]: 90%; pest or weed control at 500 g/ha [14, 19]: 50%; pest or weed control at 500 g/ha [15, 19]: 70%; pest or weed control at 500 g/ha [16, 19]: 0%
